Measured values taken from paper PMC11968843, “Sulphostin-inspired N-phosphonopiperidones as selective covalent DPP8 and DPP9 inhibitors” (Nature Communications, 2025).

Key:
Assay in all cases: Competitive ABPP / direct target identification with alkyne probe 9 in HEK293 cell lysates
Type in all cases: binding, H. sapiens
[1] = target: T1, HEK293 cell lysates (proteome-wide targets of probe 9) (Homo sapiens, UniProt P22626); details: protein HNRNPA2B1;HNRPA2B1
T1 construct: endogenous in cells; host or cells: HEK293 cell lysate

[2] = target: T2, HEK293 cell lysates (proteome-wide targets of probe 9) (Homo sapiens, UniProt P40926); details: protein MDH2
T2 construct: endogenous in cells; host or cells: HEK293 cell lysate

[3] = target: T3, HEK293 cell lysates (proteome-wide targets of probe 9) (Homo sapiens, UniProt Q9NR30); details: protein DDX21
T3 construct: endogenous in cells; host or cells: HEK293 cell lysate

[4] = target: T4, HEK293 cell lysates (proteome-wide targets of probe 9) (Homo sapiens, UniProt Q02790); details: protein FKBP4
T4 construct: endogenous in cells; host or cells: HEK293 cell lysate

[5] = target: T5, HEK293 cell lysates (proteome-wide targets of probe 9) (Homo sapiens, UniProt P37837); details: protein TALDO1
T5 construct: endogenous in cells; host or cells: HEK293 cell lysate

[6] = target: T6, HEK293 cell lysates (proteome-wide targets of probe 9) (Homo sapiens, UniProt Q07020); details: protein RPL18
T6 construct: endogenous in cells; host or cells: HEK293 cell lysate

[7] = target: T7, HEK293 cell lysates (proteome-wide targets of probe 9) (Homo sapiens, UniProt Q8NC51); details: protein SERBP1
T7 construct: endogenous in cells; host or cells: HEK293 cell lysate

[8] = target: T8, HEK293 cell lysates (proteome-wide targets of probe 9) (Homo sapiens, UniProt P68363); details: protein TUBA1B
T8 construct: endogenous in cells; host or cells: HEK293 cell lysate

[9] = target: T9, HEK293 cell lysates (proteome-wide targets of probe 9) (Homo sapiens, UniProt P62424); details: protein RPL7A
T9 construct: endogenous in cells; host or cells: HEK293 cell lysate

[10] = target: T10, HEK293 cell lysates (proteome-wide targets of probe 9) (Homo sapiens, UniProt P08670); details: protein VIM
T10 construct: endogenous in cells; host or cells: HEK293 cell lysate

[11] = target: T11, HEK293 cell lysates (proteome-wide targets of probe 9) (Homo sapiens, UniProt P25398); details: protein RPS12
T11 construct: endogenous in cells; host or cells: HEK293 cell lysate

[12] = target: T12, HEK293 cell lysates (proteome-wide targets of probe 9) (Homo sapiens, UniProt P29401); details: protein TKT
T12 construct: endogenous in cells; host or cells: HEK293 cell lysate

[13] = target: T13, HEK293 cell lysates (proteome-wide targets of probe 9) (Homo sapiens, UniProt P26373); details: protein RPL13
T13 construct: endogenous in cells; host or cells: HEK293 cell lysate

[14] = target: T14, HEK293 cell lysates (proteome-wide targets of probe 9) (Homo sapiens, UniProt Q04837); details: protein SSBP1
T14 construct: endogenous in cells; host or cells: HEK293 cell lysate

[15] = target: T15, HEK293 cell lysates (proteome-wide targets of probe 9) (Homo sapiens, UniProt P32119); details: protein PRDX2
T15 construct: endogenous in cells; host or cells: HEK293 cell lysate

[16] = target: T16, HEK293 cell lysates (proteome-wide targets of probe 9) (Homo sapiens, UniProt P08238); details: protein HSP90AB1
T16 construct: endogenous in cells; host or cells: HEK293 cell lysate

[17] = target: T17, HEK293 cell lysates (proteome-wide targets of probe 9) (Homo sapiens, UniProt P06733); details: protein ENO1
T17 construct: endogenous in cells; host or cells: HEK293 cell lysate

[18] = target: T18, HEK293 cell lysates (proteome-wide targets of probe 9) (Homo sapiens, UniProt P36578); details: protein RPL4
T18 construct: endogenous in cells; host or cells: HEK293 cell lysate

[19] = target: T19, HEK293 cell lysates (proteome-wide targets of probe 9) (Homo sapiens, UniProt Q86TI2); details: protein DPP9 (Dipeptidyl peptidase 9)
T19 construct: endogenous in cells; host or cells: HEK293 cell lysate

[20] = target: T20, HEK293 cell lysates (proteome-wide targets of probe 9) (Homo sapiens, UniProt P14923); details: protein JUP
T20 construct: endogenous in cells; host or cells: HEK293 cell lysate

[21] = target: T21, HEK293 cell lysates (proteome-wide targets of probe 9) (Homo sapiens, UniProt P05165); details: protein PCCA
T21 construct: endogenous in cells; host or cells: HEK293 cell lysate

[22] = target: T22, HEK293 cell lysates (proteome-wide targets of probe 9) (Homo sapiens, UniProt P11498); details: protein PC
T22 construct: endogenous in cells; host or cells: HEK293 cell lysate

[23] = target: T23, HEK293 cell lysates (proteome-wide targets of probe 9) (Homo sapiens, UniProt Q13642); details: protein FHL1
T23 construct: endogenous in cells; host or cells: HEK293 cell lysate

[24] = target: T24, HEK293 cell lysates (proteome-wide targets of probe 9) (Homo sapiens, UniProt Q00839); details: protein HNRNPU
T24 construct: endogenous in cells; host or cells: HEK293 cell lysate

[25] = target: T25, HEK293 cell lysates (proteome-wide targets of probe 9) (Homo sapiens, UniProt Q14103); details: protein HNRNPD
T25 construct: endogenous in cells; host or cells: HEK293 cell lysate

[26] = target: T26, HEK293 cell lysates (proteome-wide targets of probe 9) (Homo sapiens, UniProt P00338); details: protein LDHA
T26 construct: endogenous in cells; host or cells: HEK293 cell lysate

[27] = target: T27, HEK293 cell lysates (proteome-wide targets of probe 9) (Homo sapiens, UniProt P14618); details: protein PKM
T27 construct: endogenous in cells; host or cells: HEK293 cell lysate

[28] = target: T28, HEK293 cell lysates (proteome-wide targets of probe 9) (Homo sapiens, UniProt O60506); details: protein SYNCRIP
T28 construct: endogenous in cells; host or cells: HEK293 cell lysate

[29] = target: T29, HEK293 cell lysates (proteome-wide targets of probe 9) (Homo sapiens, UniProt P31948); details: protein STIP1
T29 construct: endogenous in cells; host or cells: HEK293 cell lysate

[30] = target: T30, HEK293 cell lysates (proteome-wide targets of probe 9) (Homo sapiens, UniProt P62280); details: protein RPS11
T30 construct: endogenous in cells; host or cells: HEK293 cell lysate

[31] = target: T31, HEK293 cell lysates (proteome-wide targets of probe 9) (Homo sapiens, UniProt O15372); details: protein EIF3H
T31 construct: endogenous in cells; host or cells: HEK293 cell lysate

T12 sequence (P29401 whole entry): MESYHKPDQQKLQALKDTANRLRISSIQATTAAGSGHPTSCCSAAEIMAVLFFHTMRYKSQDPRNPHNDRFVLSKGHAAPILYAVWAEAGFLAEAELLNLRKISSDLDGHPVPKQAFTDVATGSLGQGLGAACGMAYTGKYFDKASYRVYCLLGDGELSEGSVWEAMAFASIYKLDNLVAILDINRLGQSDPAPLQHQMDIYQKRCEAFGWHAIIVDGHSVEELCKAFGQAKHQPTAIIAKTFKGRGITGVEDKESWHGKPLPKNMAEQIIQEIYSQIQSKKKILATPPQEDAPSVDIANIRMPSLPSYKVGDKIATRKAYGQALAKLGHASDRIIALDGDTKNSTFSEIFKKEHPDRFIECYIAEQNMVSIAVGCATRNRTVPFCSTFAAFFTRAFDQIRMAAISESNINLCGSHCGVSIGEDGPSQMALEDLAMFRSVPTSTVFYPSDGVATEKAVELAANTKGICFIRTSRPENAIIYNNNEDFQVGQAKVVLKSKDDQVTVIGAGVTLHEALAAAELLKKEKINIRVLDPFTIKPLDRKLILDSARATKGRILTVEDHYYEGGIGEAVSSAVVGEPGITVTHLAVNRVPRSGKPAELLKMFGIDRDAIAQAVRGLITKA
T19 sequence (Q86TI2 whole entry): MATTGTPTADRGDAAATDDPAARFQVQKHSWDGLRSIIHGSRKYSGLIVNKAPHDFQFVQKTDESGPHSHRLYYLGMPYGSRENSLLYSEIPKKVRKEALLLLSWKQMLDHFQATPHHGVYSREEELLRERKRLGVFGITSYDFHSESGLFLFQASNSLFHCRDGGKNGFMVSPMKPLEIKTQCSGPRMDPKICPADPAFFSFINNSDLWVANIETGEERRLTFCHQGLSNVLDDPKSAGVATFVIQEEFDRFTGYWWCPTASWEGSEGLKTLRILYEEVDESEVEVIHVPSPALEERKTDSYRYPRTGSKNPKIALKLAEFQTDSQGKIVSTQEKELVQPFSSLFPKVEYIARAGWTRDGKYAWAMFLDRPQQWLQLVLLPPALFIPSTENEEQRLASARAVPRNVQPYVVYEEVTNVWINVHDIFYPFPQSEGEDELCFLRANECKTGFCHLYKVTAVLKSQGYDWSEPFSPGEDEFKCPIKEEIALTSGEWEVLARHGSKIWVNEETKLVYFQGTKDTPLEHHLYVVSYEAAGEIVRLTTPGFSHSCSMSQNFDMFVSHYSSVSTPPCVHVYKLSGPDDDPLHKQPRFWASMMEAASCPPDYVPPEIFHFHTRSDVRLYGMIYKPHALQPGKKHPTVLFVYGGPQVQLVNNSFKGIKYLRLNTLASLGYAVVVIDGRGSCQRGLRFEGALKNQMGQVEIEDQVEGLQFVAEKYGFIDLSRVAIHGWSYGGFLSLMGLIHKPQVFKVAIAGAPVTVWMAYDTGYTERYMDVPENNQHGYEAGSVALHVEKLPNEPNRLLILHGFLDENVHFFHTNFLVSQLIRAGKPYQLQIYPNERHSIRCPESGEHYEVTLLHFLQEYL
T14 sequence (Q04837 17-148): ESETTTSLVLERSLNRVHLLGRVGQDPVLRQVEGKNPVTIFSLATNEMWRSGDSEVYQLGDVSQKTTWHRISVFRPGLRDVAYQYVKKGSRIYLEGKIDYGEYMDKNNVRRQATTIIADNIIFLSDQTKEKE
T4 sequence (Q02790 whole entry): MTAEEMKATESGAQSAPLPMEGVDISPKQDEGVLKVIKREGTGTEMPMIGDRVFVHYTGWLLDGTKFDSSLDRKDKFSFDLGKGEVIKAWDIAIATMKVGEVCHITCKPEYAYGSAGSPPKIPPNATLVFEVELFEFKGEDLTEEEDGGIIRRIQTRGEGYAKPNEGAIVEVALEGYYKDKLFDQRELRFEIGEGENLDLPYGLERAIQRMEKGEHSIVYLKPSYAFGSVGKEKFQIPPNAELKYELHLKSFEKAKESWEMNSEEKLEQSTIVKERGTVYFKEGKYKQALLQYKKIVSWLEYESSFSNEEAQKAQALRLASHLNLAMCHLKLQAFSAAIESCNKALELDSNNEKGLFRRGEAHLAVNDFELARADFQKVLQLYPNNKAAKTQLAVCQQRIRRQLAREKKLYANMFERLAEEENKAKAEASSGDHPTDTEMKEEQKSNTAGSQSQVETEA
T29 sequence (P31948 whole entry): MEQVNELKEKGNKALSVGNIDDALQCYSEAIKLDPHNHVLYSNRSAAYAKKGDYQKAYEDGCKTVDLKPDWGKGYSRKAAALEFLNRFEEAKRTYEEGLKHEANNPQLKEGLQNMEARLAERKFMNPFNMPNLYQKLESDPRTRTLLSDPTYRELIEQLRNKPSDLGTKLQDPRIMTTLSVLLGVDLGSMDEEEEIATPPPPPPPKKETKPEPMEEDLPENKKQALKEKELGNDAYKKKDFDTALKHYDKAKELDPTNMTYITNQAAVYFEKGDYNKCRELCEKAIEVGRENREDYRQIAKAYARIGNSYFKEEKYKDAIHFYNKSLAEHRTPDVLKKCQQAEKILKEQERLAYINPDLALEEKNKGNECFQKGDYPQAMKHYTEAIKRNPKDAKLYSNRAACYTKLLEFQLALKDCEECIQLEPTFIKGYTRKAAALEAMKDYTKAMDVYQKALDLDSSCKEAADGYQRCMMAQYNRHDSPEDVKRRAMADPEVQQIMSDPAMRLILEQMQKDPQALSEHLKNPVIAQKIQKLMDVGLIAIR
T28 sequence (O60506 whole entry): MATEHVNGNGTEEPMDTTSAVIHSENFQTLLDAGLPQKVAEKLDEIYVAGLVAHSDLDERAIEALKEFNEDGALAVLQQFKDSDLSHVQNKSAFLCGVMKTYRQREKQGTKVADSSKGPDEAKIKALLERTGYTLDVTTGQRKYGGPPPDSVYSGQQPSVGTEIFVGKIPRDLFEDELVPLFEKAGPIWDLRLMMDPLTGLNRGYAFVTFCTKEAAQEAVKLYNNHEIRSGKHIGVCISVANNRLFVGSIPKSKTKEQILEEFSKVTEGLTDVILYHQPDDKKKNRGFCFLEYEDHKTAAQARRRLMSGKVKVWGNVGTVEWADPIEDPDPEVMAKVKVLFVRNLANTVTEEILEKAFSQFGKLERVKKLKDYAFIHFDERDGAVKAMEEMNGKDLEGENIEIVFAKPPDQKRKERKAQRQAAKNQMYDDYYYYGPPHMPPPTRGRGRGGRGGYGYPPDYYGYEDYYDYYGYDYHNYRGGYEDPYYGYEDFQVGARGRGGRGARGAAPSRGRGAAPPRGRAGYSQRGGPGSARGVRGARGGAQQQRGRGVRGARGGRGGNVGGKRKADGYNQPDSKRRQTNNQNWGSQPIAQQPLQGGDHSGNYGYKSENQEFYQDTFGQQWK
T20 sequence (P14923 whole entry): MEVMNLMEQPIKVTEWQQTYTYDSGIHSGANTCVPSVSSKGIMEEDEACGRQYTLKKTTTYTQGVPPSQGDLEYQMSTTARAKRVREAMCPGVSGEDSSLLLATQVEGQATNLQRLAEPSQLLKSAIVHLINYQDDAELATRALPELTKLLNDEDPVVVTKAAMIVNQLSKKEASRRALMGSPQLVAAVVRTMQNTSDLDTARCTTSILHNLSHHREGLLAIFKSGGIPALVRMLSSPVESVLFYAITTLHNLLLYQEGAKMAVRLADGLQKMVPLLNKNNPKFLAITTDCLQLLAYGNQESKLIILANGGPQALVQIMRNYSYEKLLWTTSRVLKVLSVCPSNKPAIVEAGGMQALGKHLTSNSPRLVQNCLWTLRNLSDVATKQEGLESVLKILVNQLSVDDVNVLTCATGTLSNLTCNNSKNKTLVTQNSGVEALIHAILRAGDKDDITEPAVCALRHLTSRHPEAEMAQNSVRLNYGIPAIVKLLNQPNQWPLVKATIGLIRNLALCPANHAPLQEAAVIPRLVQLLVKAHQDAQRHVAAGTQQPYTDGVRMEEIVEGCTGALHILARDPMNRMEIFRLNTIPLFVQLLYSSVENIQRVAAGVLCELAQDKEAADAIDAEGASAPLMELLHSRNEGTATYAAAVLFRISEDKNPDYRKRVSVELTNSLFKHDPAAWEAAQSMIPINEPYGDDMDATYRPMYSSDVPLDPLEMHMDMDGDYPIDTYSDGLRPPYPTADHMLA
T25 sequence (Q14103 whole entry): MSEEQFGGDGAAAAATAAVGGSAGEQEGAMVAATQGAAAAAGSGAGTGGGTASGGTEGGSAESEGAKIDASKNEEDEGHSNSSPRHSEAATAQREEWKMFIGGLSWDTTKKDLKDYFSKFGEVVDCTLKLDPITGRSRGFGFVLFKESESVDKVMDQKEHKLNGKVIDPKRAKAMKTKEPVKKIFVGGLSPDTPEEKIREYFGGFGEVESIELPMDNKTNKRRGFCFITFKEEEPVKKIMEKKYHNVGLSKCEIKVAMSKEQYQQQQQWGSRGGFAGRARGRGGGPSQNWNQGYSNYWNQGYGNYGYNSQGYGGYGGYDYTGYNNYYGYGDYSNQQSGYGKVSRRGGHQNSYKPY
T10 sequence (P08670 whole entry): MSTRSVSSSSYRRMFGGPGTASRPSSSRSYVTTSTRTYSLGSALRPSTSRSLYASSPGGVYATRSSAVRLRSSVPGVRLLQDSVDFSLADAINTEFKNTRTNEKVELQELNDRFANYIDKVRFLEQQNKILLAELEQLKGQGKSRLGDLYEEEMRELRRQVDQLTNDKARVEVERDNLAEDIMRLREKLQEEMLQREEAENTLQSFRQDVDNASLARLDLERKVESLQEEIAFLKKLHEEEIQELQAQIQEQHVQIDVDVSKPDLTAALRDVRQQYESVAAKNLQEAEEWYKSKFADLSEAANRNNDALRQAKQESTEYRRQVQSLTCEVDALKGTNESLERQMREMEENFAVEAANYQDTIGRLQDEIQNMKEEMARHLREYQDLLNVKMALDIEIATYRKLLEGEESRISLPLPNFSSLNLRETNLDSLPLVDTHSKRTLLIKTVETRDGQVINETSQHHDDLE

Compound: C#CCCCP(=O)(OCC)N1CCCC(N)C1=O.O=C(O)C(F)(F)F (mixture of isomers) [Compound 9]
- Log2-fold change (9/DMSO) [1]: -0.2704
- Log2-fold change (9/DMSO) [2]: 0.889
- Log2-fold change (9/DMSO) [3]: 0.9591
- Log2-fold change (9/DMSO) [4]: 0.6761
- Log2-fold change (9/DMSO) [5]: 0.3993
- Log2-fold change (9/DMSO) [6]: 1.2987
- Log2-fold change (9/DMSO) [7]: -0.5195
- Log2-fold change (9/DMSO) [8]: 0.8793
- Log2-fold change (9/DMSO) [9]: 1.788
- Log2-fold change (9/DMSO) [10]: 0.9336
- Log2-fold change (9/DMSO) [11]: -1.46
- Log2-fold change (9/DMSO) [12]: -1.0711
- Log2-fold change (9/DMSO) [13]: 1.809
- Log2-fold change (9/DMSO) [14]: -1.05
- Log2-fold change (9/DMSO) [15]: 0.06438
- Log2-fold change (9/DMSO) [16]: 0.02806
- Log2-fold change (9/DMSO) [17]: -0.0902
- Log2-fold change (9/DMSO) [18]: -0.3595
- Log2-fold change (9/DMSO) [19]: 5.502
- Log2-fold change (9/DMSO) [20]: 0.133
- Log2-fold change (9/DMSO) [21]: -0.691
- Log2-fold change (9/DMSO) [22]: -0.6769
- Log2-fold change (9/DMSO) [23]: -0.4077
- Log2-fold change (9/DMSO) [24]: -0.419
- Log2-fold change (9/DMSO) [25]: 1.662
- Log2-fold change (9/DMSO) [26]: -0.2121
- Log2-fold change (9/DMSO) [27]: -0.3682
- Log2-fold change (9/DMSO) [28]: 0.3304
- Log2-fold change (9/DMSO) [29]: 1.191
- Log2-fold change (9/DMSO) [30]: -0.5072
- Log2-fold change (9/DMSO) [31]: 0.7356

Compound: CCCCCc1ccc(SCCP(=O)(OCC)N2CCC[C@H](N)C2=O)cc1.O=C(O)C(F)(F)F (some centres unmarked) [Compound 16]
- Log2-fold change (16/9) [1]: -0.7288
- Log2-fold change (16/9) [2]: -2.217
- Log2-fold change (16/9) [3]: 0.06992
- Log2-fold change (16/9) [4]: -0.2833
- Log2-fold change (16/9) [5]: 0.1822
- Log2-fold change (16/9) [6]: -1.003
- Log2-fold change (16/9) [7]: -1.208
- Log2-fold change (16/9) [8]: -1.967
- Log2-fold change (16/9) [9]: 0.2888
- Log2-fold change (16/9) [10]: -0.2472
- Log2-fold change (16/9) [11]: 0.07588
- Log2-fold change (16/9) [12]: 1.379
- Log2-fold change (16/9) [13]: -0.8436
- Log2-fold change (16/9) [14]: -1.78
- Log2-fold change (16/9) [15]: 1.348
- Log2-fold change (16/9) [16]: -0.3526
- Log2-fold change (16/9) [17]: 0.05891
- Log2-fold change (16/9) [18]: 0.07056
- Log2-fold change (16/9) [19]: -5.229
- Log2-fold change (16/9) [20]: -0.03524
- Log2-fold change (16/9) [21]: 0.1044
- Log2-fold change (16/9) [22]: 0.1121
- Log2-fold change (16/9) [23]: 0.2096
- Log2-fold change (16/9) [24]: -1.015
- Log2-fold change (16/9) [25]: -0.4231
- Log2-fold change (16/9) [26]: 0.1049
- Log2-fold change (16/9) [27]: 0.00104
- Log2-fold change (16/9) [28]: -1.04
- Log2-fold change (16/9) [29]: -0.3266
- Log2-fold change (16/9) [30]: 0.1367
- Log2-fold change (16/9) [31]: -0.06894
